Test results: patent US12257251B2, “Use of FAK inhibitor in preparation of drug for treating tumors having NRAS mutation” (INXMED (NANJING) CO., LTD., priority 2019, dated 2025)

Tested on: human esophageal cancer cell line KYSE-270
Test: Subcutaneous xenograft of human esophageal cancer cell line KYSE-270 in NMRI nude mice: tumor growth
Format: in vivo, mouse
Settings: for Tumor shrinkage [x/y]: BI853520 50 mg/Kg qd
Description: 1.1. Model: Subcutaneous xenograft of human esophageal cancer cell line KYSE-270 in NMRI nude mice.
1.3. Cells: KYSE-270 is an esophageal cancer cell line (Public Health England, catalog number: 94072021). Cells were cultured in T175 tissue culture flasks containing 5% CO2 at 37° C. The medium was RPMI 1640+HAM F12 (1:1) supplemented with 2% FCS and 2 mM Glutamax. Passage was performed three times a week at a ratio of 1:2.
1.4. Mice: Mice were 8 to 10 week old female mice (BomTac: NMRI-Foxn1^nu) purchased from Taconic®, Denmark. Upon arrival in the animal room, the mice were allowed to acclimate for at least 5 days before being used for assay. The animals were housed under standard conditions (temperature: 21.5±1.5° C., humidity: 55+10%), 7 to 10 mice for each group. A standard diet and autoclaved tap water were provided for ad libitum feeding. A subcutaneous microchip implanted under isoflurane anesthesia was used to identify each mouse.
1.5. Random establishment of tumors: To establish subcutaneous tumors, KYSE-270 cells were harvested by centrifugation, washed and resuspended in PBS+5% FCS at a concentration of 5×10^7 cells/ml. Then 100 l of cell suspension containing 5×10^6 cells was injected subcutaneously into the right flank of mice (1 site per mouse). When tumors were well established and reached a volume of 94 to 252 mm^3, mice were randomly assigned to the treatment group and the control group (13 days after cell injection).
1.6. Administration: BI 853520 was suspended in 0.5% hydroxyethyl cellulose, which was administered intragastrically through gavage needle every day, and the dosage was 10 mL/Kg body weight. Paclitaxel was dissolved in saline (0.9% NaCl), which was administered intravenously in a volume of 10 ml/kg body weight. The suspension of BI853520 could be used for up to 7 days. Paclitaxel solution was stored at 6° C. and used for up to 14 days.
1.7. Monitoring tumor growth and side effects: Tumor diameters were measured with calipers three times a week. The volume [mm^3] of each tumor was calculated according to the equation “tumor volume=length×diameter^2×π/6”. To monitor the side effects of the treatment, the mice were checked daily for abnormalities and their body weights were measured three times a week. For ethical reasons, animals with tumors larger than 1.5 cm in diameter, ulcerated tumors, or 20% body weight loss were euthanized.
Statistical assessment of tumor volume and body weight on day 13 was performed. Animal number 1 (control group) was excluded from the statistical evaluation because of weight loss and had to be euthanized early (day 9). Measured tumor volume was used as the target variable in the statistical analysis. The number of animals and the median, minimum and maximum tumor volumes in each group were calculated. For a quick overview of possible treatment effects, the median tumor volume for each treatment group T and the median tumor volume for the control group C were used to calculate TGI: TGI=100×[(Cd−C1)−(Td−T1)]/(Cd−C1) • wherein, C1, T1=median tumor volume in control and treatment groups at the start of the assay (day 1). • Cd, Td=median tumor volume in control and treatment groups at the end of the assay (day 13).
The wilcoxon test was used for comparison. For body weight, the percent change relative to initial body weight on day 1 was used as the target variable for statistical analysis. The number of animals, and the median, minimum and maximum weight changes in each group were calculated.
One-sided test to compare all treatment groups with control group was performed for observing: • reduction in tumor volume (inhibition of tumor growth, efficacy parameter) and • reduction in weight changes (weight loss, tolerance parameters).
Within each subtopic, p-values for the efficacy parameter were compared and adjusted for multiple times according to Bonferroni-Holm. The p-value for the tolerance parameter was kept constant so as not to overlook possible side effects. […]

## COc1cc(C(=O)NC2CCN(C)CC2)c(F)cc1Nc1ncc(C(F)(F)F)c(Oc2cccc3c2C(=O)N(C)C3)n1 [BI853520]
BI853520 50 mg/Kg qd p.o., day 13
  TGI: 106%
Day 13, 50 mg/kg
  Tumor shrinkage [x/y]: 6/7
Day 13, listed as BI 853520, 50 mg/kg
  Tumor shrinkage [x/y]: 6 of 7
BI 853520 50 mg/kg
  Inhibition of tumor growth (in words): statistically significant inhibition of tumor growth
BI 853520 50 mg/kg per day, day 13 (start 175 mm^3)
  Median tumor volume: 126 mm^3
